Where “and” joins values, the source holds several entries; their conditions need not be identical. Equal values may be shown once.
Assays:
[1] = biological target: T1, phosphorylated VEGF-R2Δ50 (FLVK-P) (Homo sapiens, UniProt P35968, DEL940-989/E990V); test: VEGF-R2 coupled spectrophotometric (FLVK-P) assay; format: biochemical
T1 construct: VEGF-R2Δ50 contains residues 806-939 and 990-1171; made in house; host or cells: baculovirus/insect cells
Method in brief: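 Baculovirus-expressed human VEGF-R2Δ50 (residues 806-939/990-1171, E990V) was autophosphorylated with 3 mM ATP, 40 mM MgCl2 for 2 h at 4° C. ADP formation was coupled via PK/LDH to NADH oxidation, read at 340 nm, with 5.1 mM poly(E4Y1), 1 mM ATP, 25 mM MgCl2, Hepes pH 7.5. Ki came from activity across compound concentrations.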

[2] = biological target: T2, FGF-R1 (Homo sapiens, UniProt P11362, C488A/C584S/L457V); test: FGF-R spectrophotometric assay; format: biochemical; details: for inhibition at 1 µM: Table 3, % inh @ 1 uM, read-out: FGF-P Ki (nM) (% inh @ 1 uM)
T2 construct: starting from the endogenous methionine residue 456 to glutamate 766; made in house; host or cells: baculovirus vector expression system
Description: FGF-R1 Construct for Assay: The intracellular kinase domain of human FGF-R1 was expressed using the baculovirus vector expression system starting from the endogenous methionine residue 456 to glutamate 766, according to the residue numbering system of Mohammadi et al., Mol. Cell. Biol., 16, 977-989 (1996). In addition, the construct also has the following 3 amino acid substitutions: L457V, C488A, and C584S.
The spectrophotometric assay was carried out as described above for VEGF-R2, except for the following changes in concentration: FGF-R=50 nM, ATP=2 mM, and poly(E4Y1)=15 mM.

[3] = biological target: T3, CHK1 (Homo sapiens, UniProt O14757); test: CHK1 high-throughput screening; format: biochemical
T3 sequence (O14757 1-476): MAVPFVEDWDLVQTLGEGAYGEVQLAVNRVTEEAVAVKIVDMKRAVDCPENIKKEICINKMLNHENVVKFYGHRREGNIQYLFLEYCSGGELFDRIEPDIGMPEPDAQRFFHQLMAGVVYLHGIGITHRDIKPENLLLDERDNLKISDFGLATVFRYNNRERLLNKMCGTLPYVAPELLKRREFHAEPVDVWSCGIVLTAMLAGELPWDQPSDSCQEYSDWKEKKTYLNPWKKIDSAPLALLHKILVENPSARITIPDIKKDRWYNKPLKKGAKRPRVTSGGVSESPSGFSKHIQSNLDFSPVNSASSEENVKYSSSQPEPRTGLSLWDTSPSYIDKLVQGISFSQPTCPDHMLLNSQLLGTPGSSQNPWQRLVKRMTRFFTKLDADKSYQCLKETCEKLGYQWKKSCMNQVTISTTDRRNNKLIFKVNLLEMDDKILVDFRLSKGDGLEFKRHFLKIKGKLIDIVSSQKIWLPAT

[4] = biological target: T4, phosphorylated VEGF-R2Δ50 (Homo sapiens, UniProt P35968, DEL940-989/E990V); test: VEGF-R2 ELISA assay; format: biochemical; details: Table 2; * determined with ELISA assay; read-out: FLVK-P Ki
T4 construct: VEGF-R2Δ50 contains residues 806-939 and 990-1171; made in house; host or cells: baculovirus/insect cells
Method in brief: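 Pre-autophosphorylated human VEGF-R2Δ50 (residues 806-939/990-1171, E990V; baculovirus) at 0.8 nM was run with 2 μM biotin-gastrin(1-17), 20 μM ATP, 26 mM MgCl2, 2 mM MnCl2, pH 7.5 Hepes. Phosphopeptide was captured on streptavidin and detected by anti-pTyr-HRP/ABTS at 405 nm; Ki came from activity at varying compound concentrations.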

[5] = biological target: CDK2/Cyclin A complex (Homo sapiens, UniProt P24941); test: CDK2/Cyclin A assay; format: biochemical; details: Table 2
Method in brief: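 Radiometric assay: 150 nM CDK2/cyclin A (insect-cell CDK2, truncated cyclin A) phosphorylates His-tagged Rb fragment (residues 386-928) with 25 μM ATP plus [32P]ATP, pH 7.4 HEPES, 2% DMSO, 30 °C for 20 min. Filter-captured product counted by phosphorimager; apparent Ki from competitive or tight-binding inhibition fits.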

[6] = biological target: T5, CDK4/Cyclin D3 complex (Homo sapiens, UniProt P11802); test: CDK4/Cyclin D assay; format: biochemical; details: Table 2
T5 construct: made in house; host or cells: insect cells co-infected with baculovirus vectors
Method in brief: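 Insect-cell-expressed CDK4/cyclin D3 (50 nM) phosphorylating His-tagged Rb fragment (residues 386-928) with 25 μM [^32P]ATP in HEPES pH 7.4, MgCl2, 2% DMSO; 20 min at 30 °C, EDTA stop. Filter-captured 32P by phosphorimager; apparent Ki from competitive or tight-binding inhibition fits.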

[7] = biological target: T6, unphosphorylated VEGF-R2Δ50 (FLVK) (Homo sapiens, UniProt P35968, DEL940-989/E990V); test: VEGF-R2 coupled spectrophotometric assay, unphosphorylated enzyme (FLVK); format: biochemical; details: Table 3; some entries 'Slow binder'
T6 construct: VEGF-R2Δ50 contains residues 806-939 and 990-1171; made in house; host or cells: baculovirus/insect cells
Method in brief: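 Unphosphorylated VEGF-R2Δ50 (5 to 40 nM) with 20 mM poly(E4Y1), 3 mM ATP, 60 mM MgCl2, 2 mM MnCl2 in 200 mM Hepes pH 7.5. ADP production coupled via PK/LDH to NADH oxidation, read at 340 nm. Ki from activity at varying compound concentrations.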

[8] = biological target: T7, LCK tyrosine kinase (Homo sapiens, UniProt P06239, C224D/P223M); test: LCK spectrophotometric assay; format: biochemical; details: Table 3, read-out: LCK (% inh @ 1 uM)
T7 construct: starting from amino acid residue 223 to the end of the protein at residue 509; made in house; host or cells: insect cells

[9] = tested on: human umbilical vein endothelial cells (HUVEC); test: HUVEC proliferation assay; format: cell-based; details: Homo sapiens, HUVEC, Table 3
Method in brief: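 Exponentially growing HUVEC were serum-starved 24 h (F12K + 1% FBS), pre-treated 1 h with compound (0.1% DMSO final), then stimulated with 6 ng/ml VEGF. Proliferation was read 72 h later by MTT reduction (A595). IC50 came from seven 0.5-log concentrations in triplicate; screens gave % inhibition relative to VEGF-only and starved wells.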

[10] = tested on: lung cancer cells (line MV522); test: Cancer cell proliferation (MV522) assay; format: cell-based; details: MV522, Table 3

T7 sequence (P06239 223-509 P223M/C224D): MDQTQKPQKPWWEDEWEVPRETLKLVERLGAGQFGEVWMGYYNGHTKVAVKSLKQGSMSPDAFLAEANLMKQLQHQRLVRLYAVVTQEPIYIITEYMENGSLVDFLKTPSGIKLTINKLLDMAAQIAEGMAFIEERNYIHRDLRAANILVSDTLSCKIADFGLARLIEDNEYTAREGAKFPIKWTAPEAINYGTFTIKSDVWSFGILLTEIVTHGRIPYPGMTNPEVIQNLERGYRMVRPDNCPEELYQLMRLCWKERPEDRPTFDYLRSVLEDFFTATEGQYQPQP
T6 sequence (P35968 with tags, fused parts or gaps DEL940-989/E990V limits assumed): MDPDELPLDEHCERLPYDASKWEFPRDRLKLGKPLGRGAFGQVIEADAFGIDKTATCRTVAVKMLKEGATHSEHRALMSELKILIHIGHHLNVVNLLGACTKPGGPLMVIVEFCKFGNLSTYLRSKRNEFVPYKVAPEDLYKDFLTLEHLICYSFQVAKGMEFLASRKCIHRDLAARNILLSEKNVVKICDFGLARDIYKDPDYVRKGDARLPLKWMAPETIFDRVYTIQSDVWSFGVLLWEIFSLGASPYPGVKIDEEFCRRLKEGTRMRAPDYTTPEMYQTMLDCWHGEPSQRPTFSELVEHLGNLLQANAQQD
T2 sequence (P11362 456-766 L457V/C488A/C584S): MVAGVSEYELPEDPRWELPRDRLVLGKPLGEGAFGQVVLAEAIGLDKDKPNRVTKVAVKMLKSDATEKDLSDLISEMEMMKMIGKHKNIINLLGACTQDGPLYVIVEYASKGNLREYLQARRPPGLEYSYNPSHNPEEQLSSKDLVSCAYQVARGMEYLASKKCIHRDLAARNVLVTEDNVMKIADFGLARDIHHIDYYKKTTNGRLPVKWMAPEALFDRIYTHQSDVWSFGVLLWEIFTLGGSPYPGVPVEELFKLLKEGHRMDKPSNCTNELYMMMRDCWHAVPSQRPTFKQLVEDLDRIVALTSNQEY
T1 sequence (P35968 with tags, fused parts or gaps DEL940-989/E990V limits assumed): as the sequence (P35968 with tags, fused parts or gaps DEL940-989/E990V limits assumed) above
T5 sequence (P11802 whole entry): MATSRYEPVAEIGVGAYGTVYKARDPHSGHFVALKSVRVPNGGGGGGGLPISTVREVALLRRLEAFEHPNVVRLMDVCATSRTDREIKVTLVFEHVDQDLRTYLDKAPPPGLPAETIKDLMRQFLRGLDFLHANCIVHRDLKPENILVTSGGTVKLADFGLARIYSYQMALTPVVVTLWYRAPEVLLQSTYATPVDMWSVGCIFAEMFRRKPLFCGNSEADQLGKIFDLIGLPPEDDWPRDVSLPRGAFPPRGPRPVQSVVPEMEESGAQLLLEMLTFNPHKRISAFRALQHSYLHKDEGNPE
T5 sequence (P30281 whole entry partner): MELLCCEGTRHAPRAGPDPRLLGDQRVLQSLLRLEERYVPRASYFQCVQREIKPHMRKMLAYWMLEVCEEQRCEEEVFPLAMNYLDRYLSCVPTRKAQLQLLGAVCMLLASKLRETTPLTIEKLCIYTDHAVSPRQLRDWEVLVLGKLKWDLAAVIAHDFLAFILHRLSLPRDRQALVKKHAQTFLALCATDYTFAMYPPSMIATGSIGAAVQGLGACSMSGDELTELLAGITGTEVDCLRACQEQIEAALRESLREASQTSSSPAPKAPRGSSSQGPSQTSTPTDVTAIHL
T4 sequence (P35968 with tags, fused parts or gaps DEL940-989/E990V limits assumed): as the sequence (P35968 with tags, fused parts or gaps DEL940-989/E990V limits assumed) above

| Compound | Ki [7] [nM] | inhibition at 1 µM [2] [%] | inhibition at 1 µM [8] [%] | IC50 [9] [nM] | also measured |
| --- | --- | --- | --- | --- | --- |
| COc1cc(O)cc(-c2csc(-c3sc(Nc4cc(OC)c(OC)c(OC)c4)nc3N)n2)c1 [A(19), 3-[4′-Amino-2′-(3,4,5-trimethoxy-phenylamino)-[2,5′]bithiazolyl-4-yl]-5-methoxyphenol] | – | – | – | – | Ki ([1]; Table 2, spectrophotometric assay): 4 nM; Ki ([2]; Table 2): 390 nM; inhibition at 20 µM ([3]; read-out: % inhibition @ 20 μM, Table 4, repeated entries per example): 78.5%; melting point: 208 to 210 °C |
| Nc1nc(Nc2ccc(S(N)(=O)=O)cc2)sc1-c1nc(-c2cc(-c3ccc(Cl)cc3Cl)co2)cs1 [A(28), 4-{4′-Amino-4-[4-(2,4-dichloro-phenyl)-furan-2-yl]-[2,5′]bithiazolyl-2′-ylamino}-benzenesulfonamide] | – | – | – | – | Ki [4]: 131000 nM; Ki [5]: 13000 nM; Ki [6]: 24000 nM; % inhibition @ 20 μM ([3]; Table 4, repeated entries per example, 20 µM): 9.3% and 0.4%; melting point: 225 to 230 °C (dec.) |
| COc1cc(Nc2nc(N)c(-c3nc(-c4cc(NC(=O)OC(C)(C)C)ccc4Cl)no3)s2)cc(OC)c1OC [B(12), (3-{5-[4-Amino-2-(3,4,5-trimethoxy-phenylamino)-thiazol-5-yl]-[1,2,4]oxadiazoyl}-4-chloro-phenyl)-carbamic acid tert-butyl ester] | 1.6 | 52 | 29 | 15 | IC50 [10]: 3600 nM |
| COc1cc(Nc2nc(N)c(-c3nc(-c4cccc(NC(=O)c5cnc6ccccc6c5)c4)cs3)s2)cc(OC)c1OC [D(60), Quinoline-3-carboxylic acid {3-[4′-amino-2′-(3,4,5-trimethoxy-phenylamino)-[2,5′]bithiazolyl-4-yl]-phenyl}-amide] | 1.4 | 10 | 11 | > 100 | – |
| COc1cc(Nc2nc(N)c(-c3nc(-c4cccc(NC(=O)c5ncoc5-c5ccccc5)c4)cs3)s2)cc(OC)c1OC [D(61), 5-Phenyl-oxazole-4-carboxylic acid {3-[4′-amino-2′-(3,4,5-trimethoxy-phenylamino)-[2,5′]bithiazolyl-4-yl]-phenyl}-amide] | – | 9 | 4 | 165 | IC50 [10]: > 10000 nM |
| COc1cccc(C(=O)Nc2cc(-c3noc(-c4sc(Nc5cc(OC)c(OC)c(OC)c5)nc4N)n3)c(F)cc2F)c1 [D(67), N-(5-{5-[4-Amino-2-(3,4,5-trimethoxy-pheny-1-amino)-thiazol-5-yl]-[1,2,4]oxadiazol-3-yl}-2,4-difluoro-phenyl)-3-methoxy-benzamide] | – | 13 | 1 | 4.1 | IC50 [10]: > 10000 nM |
| CNC(=O)Nc1nc(N)c(-c2nc(-c3cccc(NC(=O)c4cccc(Cl)c4)c3)cs2)s1 [F(10), N-{3-[4′-Amino-2′-(3-methyl-ureido)-[2,5′]bithiazolyl-4-yl]-phenyl}-3-chloro-benzamide] | 0.14 | 47 | 42 | 8.5 | – |
| COc1cccc(C(=O)Nc2cc(-c3noc(-c4sc(NC(=O)NCCCN5CCCC5=O)nc4N)n3)c(F)cc2F)c1 [O(2)] | 0.33 | 28 | 7 | – | – |
| CNC(=O)Nc1nc(N)c(-c2nc(-c3cc(NC(=O)c4cccc(OC)c4)c(F)cc3F)no2)s1 [O(4), N-(5-{5-[4-Amino-2-(3-methyl-ureido)-thiazol-5-yl]-[1,2,4]oxadiazol-3-yl}-2,4-difluoro-phenyl)-3-methoxy-benzamide] | 0.19 | 9 | 3 | 0.64 | inhibition at 0.05 µM ([1]; Table 3, at 50 nM): 87% |
| COCC(C)NC(=O)Nc1nc(N)c(-c2nc(-c3cc(NC(=O)c4cccc(OC)c4)c(F)cc3F)cs2)s1 (centres unmarked) [O(14), N-(5-{4′-Amino-2′-[3-(2-methoxy-1-methyl-ethyl)-ureido]-[2,5′]bithiazolyl-4-yl}-2,4-difluoro-phenyl)-3-methoxy-benzamide] | – | 10 | 0 | 16 | – |
| COc1cccc(C(=O)Nc2cc(-c3csc(-c4sc(NC(=O)NCCCN5CCCC5=O)nc4N)n3)c(F)cc2F)c1 [O(15), N-[5-(4′-Amino-2′-{3-[3-(2-oxo-pyrolidin-1-yl)-propyl]-ureido}-[2,5′]bithiazolyl-4-yl)-2,4-difluoro-phenyl]-3-methoxy-benzamide] | 0.5 | 28 | 2 | – | – |

Now from value to compound, other results behind:

| Ki [7] [nM] | inhibition at 1 µM [2] [%] | inhibition at 1 µM [8] [%] | Compound | IC50 [9] [nM] | also measured |
| --- | --- | --- | --- | --- | --- |
| 0.36 | 78 | 91 | CCn1nc(C)cc1C(=O)Nc1ccc(C)c(-c2noc(-c3sc(Nc4cccc(CN5CCCC5)c4)nc3N)n2)c1 [B(9)] | – | – |
| 0.9 | 8 | < 0 | COc1cccc(C(=O)Nc2cc(-c3noc(-c4sc(Nc5ccc(N6CCOCC6)nc5)nc4N)n3)c(F)cc2F)c1 [B(18), N-(5-{5-[4-Amino-2-(6-morpholin-4-yl-pyridin-3-ylamino)-thiazol-5-yl]-[1,2,4]oxadiazol-3-yl}-2,4-difluoro-phenyl)-3-methoxy-benzamide] | 10 | IC50 [10]: 1900 nM |
| 0.26 | 39 | 34 | COc1cccc(C(=O)Nc2ccc(C)c(-c3noc(-c4sc(Nc5ccccc5)nc4N)n3)c2)c1 [B(35)] | – | – |
| 0.56 | 23 | 72 | COc1cccc(C(=O)Nc2ccc(C)c(-c3noc(-c4sc(Nc5ccc(N6CCOCC6)nc5)nc4N)n3)c2)c1 [B(36), 3-[3-[(3-methoxybenzoyl)amino]-6-methyl-phenyl]-5-[2-[3-amino-6-(4-morpholinyl)-pyridinyl]-4-amino-5-thiazolyl]-1,2,4-oxadiazole] | – | – |
| 0.25 | 25 | 29 | Cc1cccc(C(=O)Nc2cccc(-c3noc(-c4sc(NC(=O)NC(C)C)nc4N)n3)c2)c1 [F(13), N-(3-{5-[4-Amino-2-(3-isopropyl-ureido)-thiazol-5-yl]-[1,2,4]oxadiazol-3-yl}-phenyl)-3-methyl-benzamide] | 16 | – |

— patent US6620828B2, “Thiazole compounds and pharmaceutical compositions for inhibiting protein kinases and methods for their use” (Agouron Pharmaceuticals, Inc., priority 1999, dated 2003)
